Data on seven compounds can be found in PubChem BioAssay (NCI).

Holding throughout (experiment): inhibition of tumour cell growth, NCI panel, 48 h
In experiment [1] the test system is HCT-15 colon.
Experiment [2] relates to SNB-19 CNS.
Experiment [3] concerns PC-3 prostate.
The subject of experiment [4] is HS 578T breast.
The subject of experiment [5] is A549 NSCLC.
Experiment [6] relates to HOP-62 NSCLC.
Experiment [7] deals with MCF7 breast.
The subject of experiment [8] is RPMI-8226 leukemia.
The subject of experiment [9] is LOX IMVI melanoma.
Experiment [10] has as its system NCI-H226 lung.
Experiment [11] concerns IGROV1 ovarian.
The subject of experiment [12] is SNB-75 CNS.
Experiment [13] deals with M14 melanoma.
For experiment [14], the system named is BT-549 breast.
For experiment [15], the system named is MDA-MB-435.
Experiment [16] relates to MDA-MB-231 breast.
Experiment [17] deals with MALME-3M melanoma.
The test system of experiment [18] is CCRF-CEM leukemia.
Experiment [19] deals with OVCAR-4 ovarian.
In experiment [20] the test system is SF-295 CNS.

Structures are written as SMILES.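 96-well plates; 48 h exposure; 5 concentrations. Endpoints by linear interpolation between flanking doses. Not reached: highest tested concentration assigned. TGI: total growth inhibition.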 Bounds are passed on as bounds.

With `S=c1[nH]n2c(COc3cccc(OCc4nnc5sc(=S)[nH]n45)c3)nnc2s1`, the TGI in [1], in [2], in experiment [3], in experiment [4], in experiment [5] and in [6] was more than 100 µM throughout. Moreover, the TGI in [7], in [8], in [9], in [10], in [11] and in [12] was more than 100 µM each time. Further, the TGI in experiment [13], in experiment [14], in [15], in experiment [16], in [17] and in experiment [18] was more than 100 µM in each case. Moreover, the TGI in [19] and in [20] was more than 100 µM each time.

On to `COc1ccc(CN(Cc2ccc(OC)cc2)C(=O)CC2(O)C=CCC2)cc1` (stereo not given), for which the TGI in experiment [1], in experiment [2], in experiment [3], in experiment [4], in experiment [5] and in experiment [6] was more than 100 µM in each case. Also, the TGI in experiment [7], in experiment [8], in [9], in experiment [10], in experiment [11] and in experiment [12] was more than 100 µM throughout. The TGI in experiment [13], in experiment [14], in experiment [15], in [16], in [17] and in [18] was more than 100 µM each time. Besides, the TGI in experiment [19] and in experiment [20] was more than 100 µM throughout.

`Cc1cc(C)nc(NS(=O)(=O)c2ccc(NNC(=O)c3cccc4c(=O)c5ccccc5[nH]c34)cc2)n1`: the TGI in [1], in experiment [2], in experiment [3], in [4], in [5] and in experiment [6] was more than 100 µM each time. Moreover, the TGI was more than 100 µM in experiment [7]; more than 100 µM in experiment [8]; more than 100 µM in experiment [9]; more than 100 µM in experiment [10]; more than 100 µM in experiment [11]; 77.7 µM in experiment [12]. The TGI in [13], in experiment [14], in [15], in experiment [16], in experiment [17] and in [18] was more than 100 µM throughout. Further, the TGI in experiment [19] and in experiment [20] was more than 100 µM in each case.

As to `COc1ccc(OC)c(N2C(=O)CSC2c2cc(OC)c(OC)c(OC)c2)c1` (stereo not given), the TGI in experiment [1], in experiment [2], in experiment [3], in experiment [4], in experiment [5] and in experiment [7] was more than 100 µM each time. Besides, the TGI in [8], in [9], in [10], in [11], in experiment [13] and in [14] was more than 100 µM each time. Besides, the TGI in experiment [15] is 86 µM; in experiment [16], more than 100 µM; in experiment [17], more than 100 µM; in experiment [18] it was more than 100 µM; in [19], more than 100 µM; in experiment [20], more than 100 µM.

Take `Cn1c(N)c2c3c(sc2nc1=O)CCCC3`: the TGI in experiment [1], in experiment [2], in experiment [3], in experiment [4], in experiment [6] and in experiment [7] was more than 75 µM in each case. For the same compound, the TGI in experiment [8], in experiment [9], in [10], in experiment [11], in experiment [12] and in experiment [14] was more than 75 µM in each case. The TGI in [15], in [16], in experiment [17], in experiment [19] and in [20] was more than 75 µM each time.

Regarding `CC(NNC(=O)CC(=O)N(C(=O)c1ccccc1)c1ccc(Cl)cc1)c1cc2ccccc2oc1=O` (stereo not given), the TGI in experiment [1], in experiment [2], in experiment [3], in [4], in [5] and in [6] was more than 10 µM each time. Besides, the TGI in experiment [7], in experiment [8], in [9], in experiment [10], in experiment [11] and in experiment [12] was more than 10 µM throughout. The TGI in experiment [13], in experiment [14], in [15], in [16], in [17] and in experiment [18] was more than 10 µM in each case. The TGI in [19] and in experiment [20] was more than 10 µM each time.

On to `CC(=O)Nc1ccc(-c2nc3cc(Cl)ccc3o2)cc1`, for which the TGI in experiment [1], in experiment [2], in experiment [3], in experiment [4], in experiment [5] and in experiment [6] was more than 50 µM in each case. For the same compound, the TGI in experiment [7], in experiment [8], in experiment [9], in [10], in [11] and in [12] was more than 50 µM each time. Moreover, the TGI in experiment [13], in experiment [14], in experiment [15], in experiment [16], in [17] and in experiment [18] was more than 50 µM in each case. Besides, the TGI in experiment [19] and in experiment [20] was more than 50 µM each time.
